Data as given in the NIST ThermoML archive (doi:10.1007/s10765-011-0995-x).
Numbers after ± are expanded uncertainties.

Tests used:
[1] = xn = mol fraction of the nth substance listed; settings: 101 kPa, Liquid, x2 = 0; for speed of sound: Pulse-echo method
[2] = refractive index (Na D-line) (dimensionless); xn = mol fraction of the nth substance listed; settings: 101 kPa, Liquid, Standard Abbe refractometry, x2 = 0
[3] = 101 kPa, Liquid; for speed of sound: Pulse-echo method
[4] = refractive index (Na D-line) (dimensionless); settings: 101.33 kPa, Liquid, Standard Abbe refractometry

CCCCCCCCCCO [decan-1-ol] + Cc1ccccc1Cl
Settings	mass density, [1] [kg/m3]	refractive index, [2]	speed of sound, [1] [m/s]	viscosity, [1] [mPa·s]
298.15 K	826.41 ± 0.43	1.4346 ± 0.0005	1380.1 ± 1.3	11.82 ± 0.11
303.15 K	822.92 ± 0.44	1.4326 ± 0.0005	1364.9 ± 1.3	9.766 ± 0.095
308.15 K	819.42 ± 0.44	1.4305 ± 0.0005	1346 ± 1.3	8.13 ± 0.081

CCCCCCCCCCO [decan-1-ol]
Settings	mass density, [3] [kg/m3]	refractive index, [4]	speed of sound, [3] [m/s]	viscosity, [3] [mPa·s]
298.15 K	826.41 ± 0.43	1.4346 ± 0.0005	1380.1 ± 1.3	11.82 ± 0.11
303.15 K	822.92 ± 0.44	1.4326 ± 0.0005	1364.9 ± 1.3	9.766 ± 0.095
308.15 K	819.42 ± 0.44	1.4305 ± 0.0005	1346 ± 1.3	8.13 ± 0.081

Cc1cccc(Cl)c1 [3-chlorotoluene]
Settings	mass density, [3] [kg/m3]	refractive index, [4]	speed of sound, [3] [m/s]	viscosity, [3] [mPa·s]
298.15 K	1067.29 ± 0.29	1.5207 ± 0.0005	1298.3 ± 1.3	0.798 ± 0.011
303.15 K	1062.81 ± 0.28	1.5189 ± 0.0005	1280.1 ± 1.3	0.746 ± 0.011
308.15 K	1058.33 ± 0.27	1.5169 ± 0.0005	1262.1 ± 1.3	0.705 ± 0.01

CCCCCCCCCCO [decan-1-ol] + Cc1cccc(Cl)c1
Settings	mass density, [1] [kg/m3]	refractive index, [2]	speed of sound, [1] [m/s]	viscosity, [1] [mPa·s]
298.15 K	826.41 ± 0.43	1.4346 ± 0.0005	1380.1 ± 1.3	11.82 ± 0.11
303.15 K	822.92 ± 0.44	1.4326 ± 0.0005	1364.9 ± 1.3	9.766 ± 0.095
308.15 K	819.42 ± 0.44	1.4305 ± 0.0005	1346 ± 1.3	8.13 ± 0.081

Cc1ccccc1Cl [2-chlorotoluene]
Settings	mass density, [3] [kg/m3]	refractive index, [4]	speed of sound, [3] [m/s]	viscosity, [3] [mPa·s]
298.15 K	1077.41 ± 0.3	1.5219 ± 0.0005	1301.2 ± 1.3	0.943 ± 0.013
303.15 K	1072.83 ± 0.3	1.5189 ± 0.0005	1284.1 ± 1.3	0.885 ± 0.012
308.15 K	1068.24 ± 0.29	1.5169 ± 0.0005	1266.1 ± 1.3	0.805 ± 0.011

CCCCCCCCCCO [decan-1-ol] + Cc1ccc(Cl)cc1
Settings	mass density, [1] [kg/m3]	refractive index, [2]	speed of sound, [1] [m/s]	viscosity, [1] [mPa·s]
298.15 K	826.41 ± 0.43	1.4346 ± 0.0005	1380.1 ± 1.3	11.82 ± 0.11
303.15 K	822.92 ± 0.44	1.4326 ± 0.0005	1364.9 ± 1.3	9.766 ± 0.095
308.15 K	819.42 ± 0.44	1.4305 ± 0.0005	1346 ± 1.3	8.13 ± 0.081

Cc1ccc(Cl)cc1 [4-chlorotoluene]
Settings	mass density, [3] [kg/m3]	refractive index, [4]	speed of sound, [3] [m/s]	viscosity, [3] [mPa·s]
298.15 K	1065.11 ± 0.27	1.5188 ± 0.0005	1289.1 ± 1.2	0.828 ± 0.011
303.15 K	1059.51 ± 0.26	1.5166 ± 0.0005	1271 ± 1.2	0.784 ± 0.011
308.15 K	1053.9 ± 0.25	1.5138 ± 0.0005	1253.1 ± 1.2	0.73 ± 0.011
